Measured values from BindingDB's records for doi:10.1016/j.bmcl.2009.03.165 (Gsk, 2009).

Target: T1, Beta-secretase 2 (Homo sapiens, UniProt Q9Y5Z0)
T1 sequence (Q9Y5Z0 whole entry): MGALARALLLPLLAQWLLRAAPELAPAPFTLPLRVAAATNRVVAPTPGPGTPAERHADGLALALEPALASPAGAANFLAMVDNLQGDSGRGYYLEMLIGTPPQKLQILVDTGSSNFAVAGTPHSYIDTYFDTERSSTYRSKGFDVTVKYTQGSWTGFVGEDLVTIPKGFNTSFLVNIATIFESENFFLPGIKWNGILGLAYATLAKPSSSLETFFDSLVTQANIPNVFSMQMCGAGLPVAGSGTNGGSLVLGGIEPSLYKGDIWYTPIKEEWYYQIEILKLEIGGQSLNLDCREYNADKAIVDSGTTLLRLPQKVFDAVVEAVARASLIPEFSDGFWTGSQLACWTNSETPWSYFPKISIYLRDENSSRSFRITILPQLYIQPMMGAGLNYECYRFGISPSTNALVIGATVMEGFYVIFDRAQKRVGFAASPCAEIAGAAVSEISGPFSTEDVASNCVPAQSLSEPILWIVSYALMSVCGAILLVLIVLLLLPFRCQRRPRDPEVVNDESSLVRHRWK
Assay: Enzyme Inhibition Assay

Q: How did the IC50 turn out when `CCNc1cc(C(=O)N[C@@H](Cc2ccccc2)[C@H](O)CNCc2cccc(C(F)(F)F)c2)cc(N2CCCCS2(=O)=O)c1` [BMCL193664 Compound 24] was run?
A: Its IC50 is 1.41 µM.
